Experimental data from ChEMBL document CHEMBL1833944, “Conformationally constrained farnesoid X receptor (FXR) agonists: alternative replacements of the stilbene” (Bioorg Med Chem Lett, 2011).

Legend:
[1] = Oral bioavailability in rat at 5 mg/kg; assay type: ADME, organism-based; conditions: in vivo
Bile acid receptor [2] = molecular target: T1, Bile acid receptor (Homo sapiens, UniProt Q96RI1); experiment: Agonist activity at human amino-terminal polyhistidine-tagged FXR alpha LBD (amino acids 237 to 472) assessed as cofactor peptide SRC-1 interaction with receptor ligand binding domain after 2 hrs by FRET assay
T1 sequence (Q96RI1 whole entry): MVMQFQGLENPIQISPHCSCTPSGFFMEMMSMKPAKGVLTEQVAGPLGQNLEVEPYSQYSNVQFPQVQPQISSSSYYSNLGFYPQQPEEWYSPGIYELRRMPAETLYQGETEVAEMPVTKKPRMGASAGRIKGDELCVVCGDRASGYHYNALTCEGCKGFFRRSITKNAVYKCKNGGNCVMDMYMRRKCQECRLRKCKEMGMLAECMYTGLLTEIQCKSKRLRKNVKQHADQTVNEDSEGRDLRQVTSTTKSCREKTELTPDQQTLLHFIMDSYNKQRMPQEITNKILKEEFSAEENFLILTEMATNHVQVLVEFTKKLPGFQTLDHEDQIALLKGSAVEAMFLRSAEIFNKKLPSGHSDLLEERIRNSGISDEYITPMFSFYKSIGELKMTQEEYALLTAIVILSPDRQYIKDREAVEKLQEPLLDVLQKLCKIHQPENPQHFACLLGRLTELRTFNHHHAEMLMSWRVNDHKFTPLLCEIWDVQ

[3] = Volume of distribution at steady state in rat at 1 mg/kg, iv; assay type: ADME, organism-based; parameters: dose 1 mg/kg, route intravenous; conditions: in vivo, read-out: Vdss
Bile acid receptor [4] = molecular target: T1, Bile acid receptor; experiment: Agonist activity at human FXR LBD transfected in african green monkey CV1 cells after overnight incubation by luciferase reporter gene assay; assay type: functional, cell-based, CV-1
[5] = Clearance in rat at 1 mg/kg, iv; assay type: ADME, organism-based; parameters: dose 1 mg/kg, route intravenous; conditions: in vivo
[6] = molecular target: T2, Bile acid receptor (Homo sapiens) (UniProt Q96RI1); experiment: Agonist activity at human FXR LBD transfected in african green monkey CV1 cells assessed as maximum efficacy after overnight incubation by luciferase reporter gene assay relative to GW4064; assay type: functional, cell-based; conditions: CV-1
T2 sequence (whole entry): T1 sequence (Q96RI1 whole entry)

[7] = molecular target: T2, Bile acid receptor (Homo sapiens); experiment: Agonist activity at human amino-terminal polyhistidine-tagged FXR alpha LBD (amino acids 237 to 472) assessed as maximum efficacy measuring cofactor peptide SRC-1 interaction with receptor ligand binding domain after 2 hrs by FRET assay relative to GW4064
Rattus norvegicus = experiment: Dose normalized AUC in rat at 5 mg/kg, po; assay type: ADME, organism-based; parameters: dose 5 mg/kg, route oral; conditions: in vivo
[8] = Terminal half life in rat at 1 mg/kg, iv; assay type: ADME, organism-based; parameters: dose 1 mg/kg, route intravenous; conditions: in vivo, read-out: beta t1/2
[9] = Selectivity for human FXR over LXR alpha receptor
[10] = Selectivity for human FXR over LXR beta receptor
[11] = Selectivity for human FXR over PPAR delta receptor
[12] = Selectivity for human FXR over PXR receptor
[13] = Inhibition of Cytochrome P450; assay type: ADME
[14] = Selectivity for human FXR over PPAR alpha receptor
[15] = Selectivity for human FXR over PPAR gamma receptor

bioavailability [1] | EC50 (Bile acid receptor [2]) | Vd [3] | EC50 (Bile acid receptor [4]) | clearance [5] | Emax [6] | Emax [7] | AUC/dose (Rattus norvegicus) | half-life [8] | fold change (FC) [9] | fold change (FC) [10] | fold change (FC) [11] | fold change (FC) [12] | IC50 [13] | fold change (FC) [14] | fold change (FC) [15] | Compound
0% | 21 nM | 0.73 L/kg | 24 nM | 50 mL/min/kg | 81% | 115% | 0 ng·kg·h/mL/mg | 0.367 h |  |  |  |  |  |  |  | CC(C)c1onc(-c2c(Cl)cccc2Cl)c1COc1ccc(-c2ccc3c(C(=O)O)csc3c2)cc1
3% | 210 nM | 0.5 L/kg | 140 nM | 30 mL/min/kg | 69% | 96% | 16 ng·kg·h/mL/mg | 1.17 h |  |  |  |  |  |  |  | CC(C)c1onc(-c2c(Cl)cccc2Cl)c1COc1ccc(-c2ccc3cc(C(=O)O)[nH]c3c2)cc1
 | 670 nM |  | 1700 nM |  | 82% | 53% |  |  |  |  |  |  |  |  |  | CC(C)c1onc(-c2c(Cl)cccc2Cl)c1COc1ccc(-c2ccc3sc(C(=O)O)cc3n2)cc1
7.1% | 88 nM | 1.3 L/kg | 110 nM | 55 mL/min/kg | 78% | 81% | 22 ng·kg·h/mL/mg | 1.48 h |  |  |  |  |  |  |  | CC(C)c1onc(-c2c(Cl)cccc2Cl)c1COc1ccc(-c2ccc3[nH]c(C(=O)O)cc3c2)cc1
 | 190 nM |  | 990 nM |  | 59% | 72% |  |  |  |  |  |  |  |  |  | CC(C)c1onc(-c2c(Cl)cccc2Cl)c1COc1ccc(Sc2cccc3sc(C(=O)O)cc23)cc1
 | 1200 nM |  | 1300 nM |  | 36% | 61% |  |  |  |  |  |  |  |  |  | CC(C)c1onc(-c2c(Cl)cccc2Cl)c1COc1ccc(-c2nc3cccc(C(=O)O)c3[nH]2)cc1
 |  |  |  |  | 104% | 134% |  |  |  |  |  |  |  |  |  | CC(C)c1onc(-c2c(Cl)cccc2Cl)c1COc1ccc(-c2ccc3c(C(=O)O)cccc3c2)cc1
 |  | 3.4 L/kg |  | 32 mL/min/kg | 102% | 105% | 130 ng·kg·h/mL/mg | 2.83 h |  |  |  |  |  |  |  | CC(C)c1onc(-c2c(Cl)cccc2Cl)c1COc1ccc(-c2ccc3nc(C(=O)O)ccc3c2)cc1
 | 250 nM |  | 530 nM |  | 91% | 77% |  |  |  |  |  |  |  |  |  | CC(C)c1onc(-c2c(Cl)cccc2Cl)c1COc1ccc(-c2ccc3sc(C(=O)O)cc3c2)cc1
 | 550 nM |  | 750 nM |  | 68% | 72% |  |  |  |  |  |  |  |  |  | CC(C)c1onc(-c2c(Cl)cccc2Cl)c1COc1ccc(-c2ccc3c(c2)CCCC3C(=O)O)cc1 (stereo not given)
5.1% | 20 nM | 1.2 L/kg | 31 nM | 76 mL/min/kg | 35% | 107% | 11 ng·kg·h/mL/mg | 0.433 h | > 100 | > 100 | > 100 | > 100 | > 5000 nM | > 100 | > 100 | CC(C)c1onc(-c2c(Cl)cccc2Cl)c1COc1ccc(-c2ccc3c(C(=O)O)c[nH]c3c2)cc1
20% | 51 nM | 1.7 L/kg | 130 nM | 78 mL/min/kg | 90% | 93% | 43 ng·kg·h/mL/mg | 1.02 h |  |  |  |  |  |  |  | CC(C)c1onc(-c2c(Cl)cccc2Cl)c1COc1ccc(-c2ccc3oc(C(=O)O)cc3c2)cc1
 | 750 nM |  | 490 nM |  | 59% | 75% |  |  |  |  |  |  |  |  |  | CC(C)c1onc(-c2c(Cl)cccc2Cl)c1COc1ccc(-c2ccc3c(c2)CC(C(=O)O)C3)cc1 (stereo not given)
 |  |  |  |  | 100% | 100% |  |  |  |  |  |  |  |  |  | CC(C)c1onc(-c2c(Cl)cccc2Cl)c1COc1ccc(/C=C/c2cccc(C(=O)O)c2)c(Cl)c1
 | 1000 nM |  | 500 nM |  | 42% | 38% |  |  |  |  |  |  |  |  |  | CC(C)c1onc(-c2c(Cl)cccc2Cl)c1COc1ccc(Cn2ccc3ccc(C(=O)O)cc32)cc1
